Earlier results as cited in patent publication US20050232957A1, “Compositions and methods for moisturizing skin” (priority 2004, published 2005).

Settings: person, one month after starting treatment

In the case of `CS(=O)(=O)c1ccc(C2=C(c3ccccc3)C(=O)OC2)cc1` [rofecoxib], the “aquagenic wrinkling of the palms (AWP)” value is listed as “developed AWP”.
